Laboratory results reported in patent publication US6479435B1, “Diaryl ethers and processes for their preparation and herbicidal and desiccant compositions containing them” (ISK Americas Incorporated, priority 1997, dated 2002).

Key:
Type in all cases: in vivo
[1] = system: soybean (Glycine max L., var. Pella 86, SOY); assay: Post-emerge greenhouse test, crop damage rating; parameters: key to crop damage rating SOY: 0-100 scale: 0 = no damage, 100 = complete death of all plants; conditions: 14 days after application; for crop damage rating SOY: scale 0-100
Source text: (§1) A standard greenhouse herbicide activity screening system was used to evaluate the herbicidal efficacy and crop safety of these test compounds. Six broadleaf weed species including redroot pigweed (Amaranthus retroflexus, AMARE), velvetleaf (Abutilon theophrasti, ABUTH), sicklepod (Cassia obtusifolia, CASOB), ivyleaf morningglory (Ipomoea hederacea, IPOHE), lambsquarters (Chenopodium album, CHEAL) and common ragweed (Ambrosia artemisiifolia L., AMBEL) were used as test species. Four grass weed species including green foxtail (Setaria viridis, SETVI), barnyardgrass (Echinochloa crusgalli, ECHCG), Johnsongrass (Sorghum halepense, SORHA), and large crabgrass (Digitaria sanguinalis, DIGSA) were also used. In addition, three crop species, field corn (Zea mays L., var. Dekalb 535, CORN), soybean (Glycine max L., var. Pella 86, SOY), and upland rice (Oryza sp., var.Tebonnet, RICE) were included.
(§2) All test compounds were dissolved in acetone and applied to the test units in a volume of 187 l/ha. Test materials were applied at rates ranging from 125 g ai/ha to 1000 g ai/ha using a track sprayer equipped with a TJ8001E even flow flat fan spray nozzle. Plants were arranged on a shelf so that the top of the canopy (post-emerge) or top of the soil surface (pre-emerge) was 40-45 cm below the nozzle. Pressurized air was used to force the test solution through the nozzle as it was mechanically advanced (via electrically driven chain drive) over the top of all test plants/pots. This application simulates a typical commercial field herbicide application.
(§3) In the post-emerge test, a commercial non-ionic surfactant was also included (0.25% v/v) to enhance wetting of the leaf surfaces Qf target plants at rates ranging from 63 g ai/ha to 1000 g ai/ha. For post-emerge tests, seeds were planted 8-21 days prior to the test to allow emergence and good foliage development prior to application of the test substances. At the time of the post-emerge application, plants of all species were usually at the 2-3 leaf stage of development. Post-emerge test units were always bottom-watered.
(§4) At 14 days after application of the test materials, phytotoxicity ratings were recorded. A rating scale of 0-100 was used as previously described in Research Methods in Weed Science, 2nd edition, B. Truelove, Ed., Southern Weed Science Society, Auburn University, Auburn, Ala., 1977. Briefly, “0” corresponds to no damage and “100” corresponds to complete death of all plants in the test unit. This scale was used both to determine efficacy against weed species and damage to crop species. Herbicide activity data for various compounds of this invention, which are shown by compound number in Tables 1-9, are shown in Tables 13 and 14.

[2] = system: field corn (Zea mays L., var. Dekalb 535, CORN); assay: Post-emerge greenhouse test, crop damage rating; conditions: 14 days after application; for crop damage rating CORN: scale 0-100
Source text: as §1, §2, §3, §4

[3] = system: upland rice (Oryza sp., var.Tebonnet, RICE); assay: Post-emerge greenhouse test, crop damage rating; conditions: 14 days after application; for crop damage rating RICE: scale 0-100
Source text: as §1, §2, §3, §4

[4] = system: green foxtail (Setaria viridis, SETVI); assay: Pre-emerge greenhouse herbicide test, phytotoxicity rating; conditions: 14 days after application, rating scale 0-100
Source text: as §1
(§5) All plants were grown in 10 cm square plastic pots which were filled with a sandy loam soil mix. For preemerge tests, seeds were planted one day prior to application of the test compounds. Immediately after application, test units of the pre-emerge applications were watered at the soil surface to incorporate the test materials. Subsequently, these test units were bottom-watered.
as §2, §4

[5] = system: redroot pigweed (Amaranthus retroflexus, AMARE); assay: as above; conditions: 14 days after application, rating scale 0-100
Source text: as §1, §5, §2, §4

[6] = system: ivyleaf morningglory (Ipomoea hederacea, IPOHE); assay: as above; conditions: 14 days after application, rating scale 0-100
Source text: as §1, §5, §2, §4

[7] = system: large crabgrass (Digitaria sanguinalis, DIGSA); assay: as above; conditions: 14 days after application, rating scale 0-100
Source text: as §1, §5, §2, §4

[8] = system: velvetleaf (Abutilon theophrasti, ABUTH); assay: as above; conditions: 14 days after application, rating scale 0-100
Source text: as §1, §5, §2, §4

[9] = system: barnyardgrass (Echinochloa crusgalli, ECHCG); assay: as above; conditions: 14 days after application, rating scale 0-100
Source text: as §1, §5, §2, §4

[10] = system: sicklepod (Cassia obtusifolia, CASOB); assay: as above; conditions: 14 days after application, rating scale 0-100
Source text: as §1, §5, §2, §4

[11] = system: Johnsongrass (Sorghum halepense, SORHA); assay: as above; conditions: 14 days after application, rating scale 0-100
Source text: as §1, §5, §2, §4

[12] = system: lambsquarters (Chenopodium album, CHEAL); assay: as above; conditions: 14 days after application, rating scale 0-100
Source text: as §1, §5, §2, §4

[13] = system: field corn (Zea mays L., var. Dekalb 535, CORN); assay: Pre-emerge greenhouse test, crop damage rating; conditions: 14 days after application, rating scale 0-100
Source text: as §1, §5, §2, §4

[14] = system: upland rice (Oryza sp., var.Tebonnet, RICE); assay: Pre-emerge greenhouse test, crop damage rating; conditions: 14 days after application, rating scale 0-100
Source text: as §1, §5, §2, §4

[15] = system: soybean (Glycine max L., var. Pella 86, SOY); assay: Pre-emerge greenhouse test, crop damage rating; parameters: key to SOY crop damage rating: 0 = no damage, 100 = complete death of all plants; conditions: 14 days after application, rating scale 0-100
Source text: as §1, §5, §2, §4

[16] = system: green foxtail (Setaria viridis, SETVI); assay: Post-emerge greenhouse herbicide test, phytotoxicity rating; conditions: 14 days after application; for phytotoxicity rating SETVI: scale 0-100
Source text: as §1, §2, §3, §4

[17] = system: redroot pigweed (Amaranthus retroflexus, AMARE); assay: as above; conditions: 14 days after application; for phytotoxicity rating AMARE: scale 0-100
Source text: as §1, §2, §3, §4

[18] = system: ivyleaf morningglory (Ipomoea hederacea, IPOHE); assay: as above; conditions: 14 days after application; for phytotoxicity rating IPOHE: scale 0-100
Source text: as §1, §2, §3, §4

[19] = system: large crabgrass (Digitaria sanguinalis, DIGSA); assay: as above; conditions: 14 days after application; for phytotoxicity rating DIGSA: scale 0-100
Source text: as §1, §2, §3, §4

[20] = system: velvetleaf (Abutilon theophrasti, ABUTH); assay: as above; conditions: 14 days after application; for phytotoxicity rating ABUTH: scale 0-100
Source text: as §1, §2, §3, §4

[21] = system: barnyardgrass (Echinochloa crusgalli, ECHCG); assay: as above; conditions: 14 days after application; for phytotoxicity rating ECHCG: scale 0-100
Source text: as §1, §2, §3, §4

[22] = system: sicklepod (Cassia obtusifolia, CASOB); assay: as above; conditions: 14 days after application; for phytotoxicity rating CASOB: scale 0-100
Source text: as §1, §2, §3, §4

[23] = system: Johnsongrass (Sorghum halepense, SORHA); assay: as above; conditions: 14 days after application; for phytotoxicity rating SORHA: scale 0-100
Source text: as §1, §2, §3, §4

[24] = system: lambsquarters (Chenopodium album, CHEAL); assay: as above; conditions: 14 days after application; for phytotoxicity rating CHEAL: scale 0-100
Source text: as §1, §2, §3, §4

## Nn1c(C(F)(F)F)cc(=O)n(-c2cc(Oc3cccc(C(F)(F)F)c3)c(Cl)cc2F)c1=O [Compound 9-25, 1-Amino-3-[4-chloro-2-fluoro-5-(3-trifluoromethylphenoxy)phenyl]-6-trifluoro-methyl-1,2,3,4-tetrahydropyrimidine-2,4-dione]
[1]; rate 63 g ai/ha
  crop damage rating SOY: 60
[1]; rate 500 g ai/ha
  crop damage rating SOY: 80
[2]; rate 63 g ai/ha
  crop damage rating CORN: 15
[2]; rate 500 g ai/ha
  crop damage rating CORN: 35
[3]; rate 63 g ai/ha
  crop damage rating RICE: 5
[3]; rate 500 g ai/ha
  crop damage rating RICE: 35
[4]; Rate 125 g al/ha
  SETVI phytotoxicity rating: 100
[4]; Rate 500 g al/ha
  SETVI phytotoxicity rating: 100
[5]; Rate 125 g al/ha
  AMARE phytotoxicity rating: 100
[5]; Rate 500 g al/ha
  AMARE phytotoxicity rating: 100
[6]; Rate 125 g al/ha
  IPOHE phytotoxicity rating: 70
[6]; Rate 500 g al/ha
  IPOHE phytotoxicity rating: 90
[7]; Rate 125 g al/ha
  DIGSA phytotoxicity rating: 80
[7]; Rate 500 g al/ha
  DIGSA phytotoxicity rating: 100
[8]; Rate 125 g al/ha
  ABUTH phytotoxicity rating: 100
[8]; Rate 500 g al/ha
  ABUTH phytotoxicity rating: 100
[9]; Rate 125 g al/ha
  ECHCG phytotoxicity rating: 70
[9]; Rate 500 g al/ha
  ECHCG phytotoxicity rating: 95
[10]; Rate 125 g al/ha
  CASOB phytotoxicity rating: 30
[10]; Rate 500 g al/ha
  CASOB phytotoxicity rating: 80
[11]; Rate 125 g al/ha
  SORHA phytotoxicity rating: 80
[11]; Rate 500 g al/ha
  SORHA phytotoxicity rating: 100
[12]; Rate 125 g al/ha
  CHEAL phytotoxicity rating: 100
[12]; Rate 500 g al/ha
  CHEAL phytotoxicity rating: 100
[13]; Rate 125 g al/ha
  CORN crop damage rating: 20
[13]; Rate 500 g al/ha
  CORN crop damage rating: 40
[14]; Rate 125 g al/ha
  RICE crop damage rating: 40
[14]; Rate 500 g al/ha
  RICE crop damage rating: 90
[15]; Rate 125 g al/ha
  SOY crop damage rating: 50
[15]; Rate 500 g al/ha
  SOY crop damage rating: 80
[16]; rate 63 g ai/ha
  phytotoxicity rating SETVI: 30
[16]; rate 500 g ai/ha
  phytotoxicity rating SETVI: 80
[17]; rate 63 g ai/ha
  phytotoxicity rating AMARE: 100
[17]; rate 500 g ai/ha
  phytotoxicity rating AMARE: 100
[18]; rate 63 g ai/ha
  phytotoxicity rating IPOHE: 100
[18]; rate 500 g ai/ha
  phytotoxicity rating IPOHE: 100
[19]; rate 63 g ai/ha
  phytotoxicity rating DIGSA: 0
[19]; rate 500 g ai/ha
  phytotoxicity rating DIGSA: 60
[20]; rate 63 g ai/ha
  phytotoxicity rating ABUTH: 95
[20]; rate 500 g ai/ha
  phytotoxicity rating ABUTH: 100
[21]; rate 63 g ai/ha
  phytotoxicity rating ECHCG: 10
[21]; rate 500 g ai/ha
  phytotoxicity rating ECHCG: 0
[22]; rate 63 g ai/ha
  phytotoxicity rating CASOB: 50
[22]; rate 500 g ai/ha
  phytotoxicity rating CASOB: 100
[23]; rate 63 g ai/ha
  phytotoxicity rating SORHA: 10
[23]; rate 500 g ai/ha
  phytotoxicity rating SORHA: 70
[24]; rate 63 g ai/ha
  phytotoxicity rating CHEAL: 100
[24]; rate 500 g ai/ha
  phytotoxicity rating CHEAL: 100

## O=c1cc2n(c(=O)n1-c1cc(Oc3ncccc3[N+](=O)[O-])c(Cl)cc1F)CCC2 [Compound 5-8]
[1]; 1000 g al/ha
  SOY crop damage rating (0-100): 20
[2]; 1000 g al/ha
  CORN crop damage rating (0-100): 0
[3]; 1000 g al/ha
  RICE crop damage rating (0-100): 0
[4]; 1000 g ai/ha
  phytotoxicity rating SETVI: 95
[5]; 1000 g ai/ha
  phytotoxicity rating AMARE: 100
[6]; 1000 g ai/ha
  phytotoxicity rating IPOHE: 80
[7]; 1000 g ai/ha
  phytotoxicity rating DIGSA: 100
[8]; 1000 g ai/ha
  phytotoxicity rating ABUTH: 100
[9]; 1000 g ai/ha
  phytotoxicity rating ECHCG: 85
[10]; 1000 g ai/ha
  phytotoxicity rating CASOB: 0
[11]; 1000 g ai/ha
  phytotoxicity rating SORHA: 95
[12]; 1000 g ai/ha
  phytotoxicity rating CHEAL: 100
[13]; 1000 g ai/ha
  crop damage rating CORN: 15
[14]; 1000 g ai/ha
  crop damage rating RICE: 50
[15]; 1000 g ai/ha
  crop damage rating SOY: 50
[16]; 1000 g al/ha
  SETVI phytotoxicity rating (0-100): 10
[17]; 1000 g al/ha
  AMARE phytotoxicity rating (0-100): 40
[18]; 1000 g al/ha
  IPOHE phytotoxicity rating (0-100): 80
[19]; 1000 g al/ha
  DIGSA phytotoxicity rating (0-100): 0
[20]; 1000 g al/ha
  ABUTH phytotoxicity rating (0-100): 100
[21]; 1000 g al/ha
  ECHCG phytotoxicity rating (0-100): 0
[22]; 1000 g al/ha
  CASOB phytotoxicity rating (0-100): 30
[23]; 1000 g al/ha
  SORHA phytotoxicity rating (0-100): 0
[24]; 1000 g al/ha
  CHEAL phytotoxicity rating (0-100): 60
